# According to US9670486B2, “RNAi-based method of screening and characterizing drug combinations” (Massachusetts Institute of Technology, priority 2011, dated 2017):
# Columns and labels:
# [1] = system: Eμ-Myc;p19Arf−/− lymphoma cells; settings: for single drug cell death: single drug concentration used in the 17AAG-CBL combination
# [2] = system: Eμ-Myc;p19Arf−/− lymphoma cells; assay: 8-shRNA signature (GFP competition) with probabilistic nearest neighbors and PCA analysis; format: cell-based, mouse; settings: shDNAPKcs, LD80-90
compound,measurement,setting,value
C=CCNC1=C2C[C@@H](C)C[C@H](OC)[C@H](O)[C@@H](C)/C=C(\C)[C@H](OC(N)=O)[C@@H](OC)/C=C\C=C(/C)C(=O)NC(=CC1=O)C2=O [17AAG],single drug cell death,[1],~20%
"O=C(O)CCCc1ccc(N(CCCl)CCCl)cc1 [CBL, Chlorambucil]",single drug cell death,[1],~20%
same,effect of diminution of DNAPKcs levels on drug response,[2],resistance
"COc1cccc2c1C(=O)c1c(O)c3c(c(O)c1C2=O)C[C@@](O)(C(=O)CO)C[C@@H]3O[C@H]1C[C@H](N)[C@H](O)[C@H](C)O1 [Dox, doxorubicin]",effect of diminution of DNAPKcs levels on drug response,[2],sensitivity
Nc1nc2c(c(=O)[nH]1)N(C=O)C(CNc1ccc(C(=O)N[C@@H](CCC(=O)O)C(=O)O)cc1)CN2 (stereo partly drawn) [leucovorin],effect on 5-FU action,[1],potentiated 5-FU action
same,cell death,"[1]; leucovorin alone at 1 μM, lymphoma cells",no cell death
